Source: the supplement of paper PMC10307832

How the values were obtained:
Assay in all cases: relative viability (nuclei count vs DMSO), 5 days (fraction); higher = more cells survive
[1] = compound: CCCS(=O)(=O)Nc1ccc(F)c(C(=O)c2c[nH]c3ncc(-c4ccc(Cl)cc4)cc23)c1F [Vemurafenib] + C[C@]1(O)C[C@@H](c2nc(-c3ccc4ccc(-c5ccccc5)nc4c3)c3c(N)nccn32)C1 [Linsitinib] (partner 1 µM)
Method in brief: (§1)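 For relative viability, nuclei counts in treated wells were divided by those in vehicle wells. Lung cancer cell lines had been pin-tool dosed in 1536-well plates the day after seeding and cultured for 5 days, then fixed and stained in one step (final 0.05% Triton X-100, 1% formaldehyde, 1 ug/ml Hoechst) and imaged at 4×. Doses were one drug alone or a fixed anchor-drug dose plus five library-drug doses (not always all listed) in √10 steps, and values are duplicate-plate medians.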

[2] = compound: COc1cccc2cc(-c3nc([C@H]4CC[C@H](C(=O)O)CC4)n4ncnc(N)c34)[nH]c12 [OSI-027] + NC(=O)Nc1cc(-c2cccc(F)c2)sc1C(=O)N[C@H]1CCCNC1 [AZD7762] (partner 0.2 µM)
Method in brief: as §1

[3] = compound: Cc1nc(NC(=O)N2CCC[C@H]2C(N)=O)sc1-c1ccnc(C(C)(C)C(F)(F)F)c1 [Alpelisib] + CCNC(=O)c1noc(-c2cc(C(C)C)c(O)cc2O)c1-c1ccc(CN2CCOCC2)cc1 [Luminespib] (partner 0.01 µM)
Method in brief: as §1

[4] = compound: Cc1nc(NC(=O)N2CCC[C@H]2C(N)=O)sc1-c1ccnc(C(C)(C)C(F)(F)F)c1 [Alpelisib] + O=C(CCCCCCC(=O)Nc1ccccc1)NO [Vorinostat] (partner 1 µM)
Method in brief: as §1

| Cell Line | relative viability ([1]; first compound 0.03162 µM) | relative viability ([1]; first compound 0.3162 µM) | relative viability ([1]; first compound 1 µM) | relative viability ([2]; first compound 0.01 µM) | relative viability ([2]; first compound 0.03162 µM) | relative viability ([2]; first compound 0.1 µM) | relative viability ([2]; first compound 0.3162 µM) | relative viability ([2]; first compound 1 µM) | relative viability ([3]; first compound 0.04 µM) | relative viability ([3]; first compound 0.1265 µM) | relative viability ([3]; first compound 0.4 µM) | relative viability ([3]; first compound 1.265 µM) | relative viability ([3]; first compound 4 µM) | relative viability ([4]; first compound 0.04 µM) | relative viability ([4]; first compound 0.1265 µM) | relative viability ([4]; first compound 0.4 µM) | relative viability ([4]; first compound 1.265 µM) | relative viability ([4]; first compound 4 µM) | relative viability ([1]; first compound 0.1 µM) |
| --- | --- | --- | --- | --- | --- | --- | --- | --- | --- | --- | --- | --- | --- | --- | --- | --- | --- | --- | --- |
| HCC-827 | 0.878 | 0.924 | 0.926 | 0.194 | 0.201 | 0.195 | 0.205 | 0.214 | 0.703 | 0.594 | 0.586 | 0.406 | 0.215 | 0.899 | 0.707 | 0.495 | 0.856 | 0.647 | – |
| HOP-62 | 0.78 | 0.94 | 0.841 | 0.611 | 0.47 | 0.33 | 0.587 | 0.284 | 0.943 | 0.957 | 1.04 | 0.83 | 0.956 | 0.665 | 0.558 | 0.683 | 0.456 | 0.491 | 1.01 |
| IA-LM | 0.537 | 0.603 | 0.554 | – | – | – | – | – | – | – | – | – | – | 0.882 | – | 1.32 | 0.92 | 0.867 | 0.53 |
| LC-2-ad | 0.801 | 0.873 | 0.749 | 0.835 | 0.77 | 0.879 | 0.894 | 0.615 | 0.985 | 0.97 | 1.3 | 0.846 | 0.827 | 0.664 | 0.721 | 0.744 | 0.575 | 0.496 | 0.755 |
| LCLC-97TM1 | 0.181 | 0.175 | 0.157 | 0.245 | 0.301 | 0.371 | 0.276 | 0.18 | 0.852 | 0.707 | 0.705 | 0.279 | 0.23 | 0.673 | 0.58 | 0.63 | 0.33 | 0.291 | 0.212 |
| NCI-H520 | 1.06 | 1.02 | 0.956 | – | – | – | – | – | 0.18 | 0.203 | 0.212 | 0.245 | 0.216 | 0.611 | 0.743 | 0.629 | 0.603 | 0.463 | 1.13 |
| NCI-H522 | – | – | – | 0.807 | 0.89 | 0.68 | 0.672 | 0.612 | 1.09 | 1.21 | 1.13 | 0.881 | 0.981 | 0.79 | 0.977 | 1.04 | 0.867 | 0.742 | – |
| NCI-H661 | 0.573 | 0.663 | 0.637 | – | – | – | – | – | 0.979 | 0.969 | 1.02 | 0.928 | 0.968 | 0.765 | 0.795 | 0.819 | 0.755 | 0.728 | 0.516 |
| NCI-H1299 | 1.02 | 0.83 | 0.951 | – | – | – | – | – | – | – | – | – | – | – | – | – | – | – | 0.958 |
| NCI-H1563 | 1.2 | 1.3 | 1.25 | – | – | – | – | – | 0.488 | 0.479 | 0.404 | 0.503 | 0.462 | – | – | – | – | – | 1.11 |
| NCI-H1623 | – | – | – | – | – | – | – | – | 0.487 | 0.374 | 0.477 | 0.385 | 0.417 | – | – | – | – | – | – |
| NCI-H1648 | – | – | – | 0.813 | 0.572 | – | 0.705 | 0.667 | – | – | – | – | – | 0.418 | 0.457 | 0.714 | 0.317 | 0.324 | – |
| NCI-H1650 | – | – | – | – | – | – | – | – | 0.208 | 0.192 | 0.24 | 0.19 | 0.18 | 0.585 | 0.599 | 0.756 | 0.491 | 0.368 | – |
| NCI-H1703 | 0.738 | 0.637 | 0.787 | – | 0.0974 | – | 0.127 | 0.119 | – | – | – | – | – | – | – | – | – | – | 0.644 |
| NCI-H1792 | 0.505 | 0.484 | 0.516 | 0.673 | 0.704 | 0.682 | 0.668 | 0.192 | 0.338 | 0.5 | 0.576 | 0.326 | 0.323 | – | – | – | – | – | 0.417 |
| NCI-H2009 | 1.19 | 1.09 | 1.06 | – | – | – | – | – | 0.995 | 0.999 | 1.14 | 1.06 | 1.08 | 0.675 | 0.711 | 0.784 | 0.669 | 0.658 | 1.03 |
| NCI-H2023 | 0.655 | 0.831 | 0.666 | – | – | – | – | – | 0.644 | 0.606 | 0.679 | 0.505 | 0.4 | 0.595 | 0.634 | 0.61 | 0.394 | 0.348 | 0.552 |
| NCI-H2170 | – | – | – | 0.995 | 0.824 | 0.768 | 0.689 | 0.515 | 0.561 | 0.875 | 1.12 | 0.575 | 0.373 | 0.731 | 0.663 | 0.914 | 0.551 | 0.484 | – |
| NCI-H2228 | 0.819 | 0.773 | 0.587 | – | – | – | – | – | 0.142 | 0.132 | 0.0885 | 0.101 | 0.144 | 0.714 | 0.48 | 0.401 | 0.566 | 0.413 | 0.587 |
| NCI-H2342 | – | – | – | 0.444 | 0.426 | 0.553 | 0.414 | 0.346 | 0.762 | 0.696 | 0.686 | 0.568 | 0.488 | 0.795 | 0.622 | 0.712 | 0.662 | 0.714 | – |
| SK-LU-1 | 0.93 | 0.915 | 1.03 | – | – | – | – | – | 0.199 | 0.222 | 0.202 | 0.175 | 0.152 | 0.817 | 0.775 | 0.847 | 0.676 | 0.689 | 0.958 |
| SK-MES-1 | 1.06 | 1.03 | 1.07 | – | – | – | – | – | 0.675 | 0.561 | 0.733 | 0.527 | 0.464 | 1.13 | 1.09 | 1.15 | 0.828 | 0.833 | 0.892 |
| SW 900 | – | – | – | 0.669 | 0.575 | 0.499 | 0.508 | 0.402 | 0.163 | 0.168 | 0.177 | 0.138 | 0.173 | 0.497 | – | 0.587 | 0.368 | 0.461 | – |
| SW 1573 | 0.791 | 0.935 | 0.795 | – | – | – | – | – | 0.175 | 0.215 | 0.285 | 0.198 | 0.115 | 0.833 | 0.684 | 0.678 | 0.388 | 0.584 | 0.886 |
